In US12371430B2, “5-morpholin-4-yl-pyrazolo[4,3-b]pyridine derivatives” (Merck Patent GmbH, priority 2018, dated 2025):

Tests used:
ATR/ATRIP = ATR/ATRIP (Homo sapiens (Human), UniProt Q13535); assay: ATR/ATRIP kinase assay (TR-FRET, p53 Ser15 phosphorylation); type: biochemical; conditions: 0.5 μM ATP, 50 nM p53
Protocol: ATR/ATRIP Kinase Assay—Measurement of ATR/ATRIP Inhibition
The IC50 value was determined by an ATR/ATRIP enzymatic assay. The assay comprises two steps: the enzymatic reaction and the detection step. First, a mixture of ATR/ATRIP protein (Ataxia Telangiectasia and Rad3-related protein/ATR interacting protein), the compound in question at different concentrations, p53 as substrate protein and adenosine triphosphate (ATP) are incubated in assay buffer. ATR phosporylates p53 at Ser15 and other residues. The amount of phosphorylated p53 is then detected using specific antibodies and the TR-FRET assay technology.
In detail: The ATR/ATRIP enzymatic assay is performed as a TR-FRET-(HTRF™, Cisbio Bioassays) based 384-well assay. In a first step, purified human recombinant ATR/ATRIP (human ATR, full length, GenBank ID: NM_001184.3, and human ATRIP, full length, GenBank ID AF451323.1, co-expressed in a mammalian cell line) is incubated in assay buffer for 15 minutes at 22° C. with test compound at different concentrations or without test compound (as a negative control). The assay buffer contains 25 mM HEPES pH 8.0, 10 mM Mg(CH3COO)2, 1 mM MnCl2, 0.1% BSA, 0.01% Brij® 35, and 5 mM dithiothreitol (DTT). An Echo 555 (Labcyte) is used for dispensing of compound solutions. Then, in a second step, purified human recombinant cmyc-tagged p53 (human p53, full length, GenBank ID: BC003596, expressed in Sf21 insect cells) and ATP are added and the reaction mixture is incubated for 25-35 minutes, typically 25 minutes, at 22° C. The pharmacologically relevant assay volume is 5 μl. The final concentrations in the assay during incubation of the reaction mixture are 0.3-0.5 nM, typically 0.3 nM, ATR/ATRIP, 50 nM p53, and 0.5 μM ATP. The enzymatic reaction is stopped by the addition of EDTA. The generation of phosphorylated p53 as a result of the ATR mediated reaction in the presence of ATP is detected by using specific antibodies [labeled with the fluorophores europium (Eu) as donor and d2 as acceptor (Cisbio Bioassays)] enabling FRET. For this purpose, 2 μl of antibody-containing stop solution (12.5 mM HEPES pH 8.0, 125 mM EDTA, 30 mM sodium chloride, 300 mM potassium fluoride, 0.006% Tween-20, 0.005% Brij® 35, 0.21 nM anti-phospho-p53(Ser15)-Eu antibody, 15 nM anti-cmyc-d2 antibody) are added to the reaction mixture. Following signal development for 2 h the plates are analyzed in an EnVision (PerkinElmer) microplate reader using the TRF mode with laser excitation. Upon excitation of the donor europium at 340 nm the emitted fluorescence light of the acceptor d2 at 665 nm as well as from the donor Eu at 615 nm are measured. The amount of phosphorylated p53 is directly proportional to the ratio of the amounts of emitted light i.e. the ratio of the relative fluorescence units (rfu) at 665 nm and 615 nm. Data are processed employing the Genedata Screener software. In particular, IC50 values are determined in the usual manner by fitting a dose-response curve to the data points using nonlinear regression analysis. • IC50=half maximal inhibitory concentration • ATP=Adenosine triphosphate • TR-FRET=Time-Resolved Fluorescence Resonance Energy Transfer • HTRF®=Homogeneous Time Resolved Fluorescence • HEPES=2-(4-(2-Hydroxyethyl)-1-piperazinyl)-ethanesulfonic acid • Mg(CH3COO)2=Magnesium acetate • MnCl2=Manganese(II)-chloride • BSA=Bovine Serum Albumin • EDTA=Ethylendiamine Tetraacetate • TRF=Time Resolved Fluorescence pCHK1 Cellular Assay

[1] = test system: phosphorylation of Chk1 (Ser 345) in HT29 colon adenocarcinoma cells; assay: pCHK1 cellular assay; type: cell-based; conditions: Homo sapiens, HT-29, hydroxyurea 3 mM, 4 h
Text: Chk1 kinase acts downstream of ATR and has a key role in DNA damage checkpoint control. Activation of Chk1 involves phosphorylation of Ser317 and Ser345 (regarded as the preferential target for phosphorylation/activation by ATR) and occurs in response to blocked DNA replication and certain forms of genotoxic stress. Phosphorylation at Ser 345 serves to localize Chk1 to the nucleus following checkpoint activation.
This assay measures a decrease in phosphorylation of Chk1 (Ser 345) in HT29 colon adenocarcinoma cells following treatment with compound and hydroxyurea (which promotes fork stalling because of dNTP depletion) and using an immunocytochemical procedure and high content imaging.
For the assay HT29 cells are plated in culture medium (DMEM high Glucose (no phenol red), 2 mM Glutamax, 1 mM Pyruvate, 10% FCS into Greiner 384 well plates, black, μclear #781090 (2500 cells/well/30 μl) and incubated for at least 20 hours at 37° C., 10% CO2 and 90% rH. Diluted test compounds (1 nM-30 μM final) and hydroxyurea (3 mM final) are added simultaneously and cells are incubated for 4 h at 37° C. After fixation/prmeabilisation with 100% MeOH (−20° C. cold) and permeabilisation with 0.2% Triton X-100 a complete immunocytochemical procedure is performed using a specific anti-pChk1 antibody (Cell Signaling, #2348BF) and fluorescently labelled secondary antibody (Alexa Fluor® 488 goat anti-rabbit F(ab′)2 fragment, Invitrogen A11070) and parallel nuclear staining for cell counting.
The nuclear localised pChk1 signal is detected on an ImageXpress Ultra confocal high content reader and reported as % positive cells (nuclei).

ATR/ATRIP, sequence (Q13535 whole entry): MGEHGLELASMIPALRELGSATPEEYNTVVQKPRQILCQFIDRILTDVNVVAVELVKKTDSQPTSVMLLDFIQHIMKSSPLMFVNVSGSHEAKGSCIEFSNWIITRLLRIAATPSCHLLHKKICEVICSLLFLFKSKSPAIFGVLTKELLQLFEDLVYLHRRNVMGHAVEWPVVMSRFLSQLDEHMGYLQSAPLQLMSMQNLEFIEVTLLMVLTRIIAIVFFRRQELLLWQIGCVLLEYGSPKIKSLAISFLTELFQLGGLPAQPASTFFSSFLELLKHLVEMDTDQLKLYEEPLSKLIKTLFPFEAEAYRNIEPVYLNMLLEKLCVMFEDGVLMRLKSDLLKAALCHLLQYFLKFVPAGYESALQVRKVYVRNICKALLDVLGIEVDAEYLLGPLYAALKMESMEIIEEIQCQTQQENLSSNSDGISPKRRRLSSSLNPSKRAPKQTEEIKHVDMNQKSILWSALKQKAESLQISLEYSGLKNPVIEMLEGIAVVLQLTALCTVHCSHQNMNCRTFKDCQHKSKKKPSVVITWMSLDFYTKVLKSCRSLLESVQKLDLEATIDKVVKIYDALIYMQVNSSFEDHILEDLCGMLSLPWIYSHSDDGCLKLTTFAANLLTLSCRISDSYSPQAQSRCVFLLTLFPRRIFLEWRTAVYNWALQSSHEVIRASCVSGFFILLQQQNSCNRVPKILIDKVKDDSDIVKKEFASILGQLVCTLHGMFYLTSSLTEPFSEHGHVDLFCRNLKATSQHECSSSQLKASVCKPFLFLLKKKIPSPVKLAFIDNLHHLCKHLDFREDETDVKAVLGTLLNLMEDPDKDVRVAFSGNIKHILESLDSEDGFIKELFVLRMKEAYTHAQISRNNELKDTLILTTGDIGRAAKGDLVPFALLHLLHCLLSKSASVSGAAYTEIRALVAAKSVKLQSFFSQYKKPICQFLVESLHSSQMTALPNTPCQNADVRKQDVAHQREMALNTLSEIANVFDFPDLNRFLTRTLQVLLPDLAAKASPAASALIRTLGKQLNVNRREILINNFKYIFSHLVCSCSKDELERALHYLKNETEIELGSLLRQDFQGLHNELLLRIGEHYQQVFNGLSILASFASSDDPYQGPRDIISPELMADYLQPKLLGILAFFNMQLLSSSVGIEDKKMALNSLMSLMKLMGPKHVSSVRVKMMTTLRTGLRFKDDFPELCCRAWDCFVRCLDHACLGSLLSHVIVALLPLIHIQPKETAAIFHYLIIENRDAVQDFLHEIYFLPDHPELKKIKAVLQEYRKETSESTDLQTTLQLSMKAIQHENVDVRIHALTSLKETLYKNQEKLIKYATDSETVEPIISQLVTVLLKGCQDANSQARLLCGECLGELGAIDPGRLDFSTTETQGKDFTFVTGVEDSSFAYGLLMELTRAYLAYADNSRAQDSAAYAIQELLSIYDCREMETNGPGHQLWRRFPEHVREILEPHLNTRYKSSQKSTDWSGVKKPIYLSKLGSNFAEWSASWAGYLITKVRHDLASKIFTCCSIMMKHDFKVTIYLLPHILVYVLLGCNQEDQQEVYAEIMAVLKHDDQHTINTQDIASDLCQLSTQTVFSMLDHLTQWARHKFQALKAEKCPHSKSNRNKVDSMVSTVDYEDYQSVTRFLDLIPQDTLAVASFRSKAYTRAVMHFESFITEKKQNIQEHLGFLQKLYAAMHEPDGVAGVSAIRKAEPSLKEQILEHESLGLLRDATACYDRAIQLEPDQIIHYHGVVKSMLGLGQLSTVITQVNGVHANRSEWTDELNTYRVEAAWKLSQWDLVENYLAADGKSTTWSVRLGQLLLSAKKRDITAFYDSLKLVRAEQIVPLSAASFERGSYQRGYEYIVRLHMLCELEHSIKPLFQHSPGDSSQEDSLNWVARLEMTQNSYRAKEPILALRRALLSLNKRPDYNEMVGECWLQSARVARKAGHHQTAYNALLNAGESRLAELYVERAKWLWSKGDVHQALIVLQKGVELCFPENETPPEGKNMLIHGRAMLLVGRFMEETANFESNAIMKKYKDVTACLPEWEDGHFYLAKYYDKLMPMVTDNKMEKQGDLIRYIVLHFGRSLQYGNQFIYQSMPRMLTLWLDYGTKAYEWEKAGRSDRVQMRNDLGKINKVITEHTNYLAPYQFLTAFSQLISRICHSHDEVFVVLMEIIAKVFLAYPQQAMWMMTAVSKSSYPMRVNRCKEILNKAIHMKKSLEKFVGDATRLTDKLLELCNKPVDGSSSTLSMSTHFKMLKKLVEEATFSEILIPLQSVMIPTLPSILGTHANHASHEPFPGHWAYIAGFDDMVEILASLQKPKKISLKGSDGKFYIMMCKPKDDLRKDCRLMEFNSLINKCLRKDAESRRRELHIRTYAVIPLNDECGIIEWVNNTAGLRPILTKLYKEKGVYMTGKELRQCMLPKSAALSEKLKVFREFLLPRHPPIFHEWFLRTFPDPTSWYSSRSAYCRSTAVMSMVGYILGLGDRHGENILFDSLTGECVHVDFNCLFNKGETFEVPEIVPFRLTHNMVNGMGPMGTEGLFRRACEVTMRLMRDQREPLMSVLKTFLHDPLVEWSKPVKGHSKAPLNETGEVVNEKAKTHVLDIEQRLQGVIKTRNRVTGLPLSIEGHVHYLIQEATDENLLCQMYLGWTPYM
ATR/ATRIP, sequence (Q8WXE1 whole entry partner): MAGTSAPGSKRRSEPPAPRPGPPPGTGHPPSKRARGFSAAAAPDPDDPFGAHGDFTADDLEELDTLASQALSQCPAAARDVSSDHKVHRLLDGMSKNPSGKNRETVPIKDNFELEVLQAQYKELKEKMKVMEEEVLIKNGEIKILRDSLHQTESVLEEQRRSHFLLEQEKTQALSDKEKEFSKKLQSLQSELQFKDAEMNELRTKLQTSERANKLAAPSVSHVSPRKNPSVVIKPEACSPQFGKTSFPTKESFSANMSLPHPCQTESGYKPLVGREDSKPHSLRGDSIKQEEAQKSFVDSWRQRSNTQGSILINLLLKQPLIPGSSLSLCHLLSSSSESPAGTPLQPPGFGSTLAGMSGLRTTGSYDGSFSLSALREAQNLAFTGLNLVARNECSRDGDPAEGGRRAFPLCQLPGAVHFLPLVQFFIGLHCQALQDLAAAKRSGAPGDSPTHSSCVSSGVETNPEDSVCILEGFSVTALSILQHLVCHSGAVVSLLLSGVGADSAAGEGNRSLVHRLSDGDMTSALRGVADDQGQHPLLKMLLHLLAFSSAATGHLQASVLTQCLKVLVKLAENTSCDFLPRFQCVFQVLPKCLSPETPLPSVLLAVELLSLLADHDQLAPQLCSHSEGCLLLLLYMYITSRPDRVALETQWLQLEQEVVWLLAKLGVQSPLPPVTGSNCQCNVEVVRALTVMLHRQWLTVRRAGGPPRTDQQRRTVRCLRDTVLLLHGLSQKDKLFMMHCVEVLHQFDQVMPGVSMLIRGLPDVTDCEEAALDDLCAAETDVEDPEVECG

IC50 (ATR/ATRIP) [nM] | IC50 [1] [nM] | SMILES
150 | 1000 to 10000 | C[C@@H]1COCCN1c1ccc2c(n1)c(-c1cc[nH]n1)nn2Cc1cccc(S(C)(=O)=O)c1 [Compound 57, (3R)-4-{1-[(3-Methanesulfonylphenyl)methyl]-3-(1H-pyrazol-3-yl)-1H-pyrazolo[4,3-b]pyridin-5-yl}-3-methylmorpholine]
10 | 100 to 1000 | C[C@@H]1COCCN1c1cc(-c2ccccn2)c2c(n1)c(-c1cc[nH]n1)nn2C [Compound 58, (3R)-3-Methyl-4-[1-methyl-3-(1H-pyrazol-3-yl)-7-(pyridin-2-yl)-1H-pyrazolo[4,3-b]pyridin-5-yl]morpholine]
21 | 1000 to 10000 | C[C@@H]1COCCN1c1ccc2c(n1)c(-c1ccn[nH]1)nn2Cc1ccccc1 [Compound 59, (3R)-4-[1-Benzyl-3-(1H-pyrazol-5-yl)-1H-pyrazolo[4,3-b]pyridin-5-yl]-3-methylmorpholine]
32 | 1000 to 10000 | C[C@@H]1COCCN1c1ccc2c(n1)c(-c1cc[nH]n1)nn2-c1ccc(C#N)cc1 [Compound 60, 4-[5-[(3R)-3-Methylmorpholin-4-yl]-3-(1H-pyrazol-3-yl)-1H-pyrazolo[4,3-b]pyridin-1-yl]benzonitrile]
22 | 1000 to 10000 | Cc1cccnc1-c1cc(N2CCOC[C@H]2C)nc2c(-c3cc[nH]n3)nn(C)c12 [Compound 62, (3R)-3-Methyl-4-[1-methyl-7-(3-methylpyridin-2-yl)-3-(1H-pyrazol-3-yl)-1H-pyrazolo[4,3-b]pyridin-5-yl]morpholine]
27 | 100 to 1000 | C[C@@H]1COCCN1c1ccc2c(n1)c(-c1cc[nH]n1)nn2CC1CC1 [Compound 63, (3R)-4-[1-(Cyclopropylmethyl)-3-(1H-pyrazol-3-yl)-1H-pyrazolo[4,3-b]pyridin-5-yl]-3-methylmorpholine]
51 | 1000 to 10000 | C[C@@H]1COCCN1c1ccc2c(n1)c(-c1cc[nH]n1)nn2CCc1ccccc1 [Compound 64, 5-((R)-3-Methyl-morpholin-4-yl)-1-phenethyl-3-(1H-pyrazol-3-yl)-1H-pyrazolo[4,3-b]pyridine]
5.8 | 100 to 1000 | C[C@@H]1COCCN1c1cc(-c2ccc(C(F)(F)F)nc2)c2c(n1)c(-c1cc[nH]n1)nn2C [Compound 65, (3R)-3-Methyl-4-[1-methyl-3-(1H-pyrazol-3-yl)-7-[6-(trifluoro-methyl)pyridin-3-yl]-1H-pyrazolo[4,3-b]pyridin-5-yl]morpholine]
1.9 | < 10 | C[C@@H]1COCCN1c1cc(-c2cccnc2C(F)(F)F)c2c(n1)c(-c1cc[nH]n1)nn2C [Compound 66, (3R)-3-Methyl-4-[1-methyl-3-(1H-pyrazol-3-yl)-7-[2-(trifluoro-methyl)pyridin-3-yl]-1H-pyrazolo[4,3-b]pyridin-5-yl]morpholine]
28 | 100 to 1000 | CC(C)n1nc(-c2cc[nH]n2)c2nc(N3CCOC[C@H]3C)ccc21 [Compound 73, (3R)-3-Methyl-4-[1-(propan-2-yl)-3-(1H-pyrazol-3-yl)-1H-pyrazolo[4,3-b]pyridin-5-yl]morpholine]
21 | 100 to 1000 | Cc1ccc(S(C)(=O)=O)cc1-c1cc(N2CCOC[C@H]2C)nc2c(-c3ccn[nH]3)nn(C)c12 [Compound 75, (3R)-4-[7-(5-Methanesulfonyl-2-methylphenyl)-1-methyl-3-(1H-pyrazol-5-yl)-1H-pyrazolo[4,3-b]pyridin-5-yl]-3-methylmorpholine]
28 | 100 to 1000 | C[C@@H]1COCCN1c1cc(-c2cccc(S(C)(=O)=O)c2)c2c(n1)c(-c1ccn[nH]1)nn2C [Compound 76, (3R)-4-[7-(3-Methanesulfonylphenyl)-1-methyl-3-(1H-pyrazol-5-yl)-1H-pyrazolo[4,3-b]pyridin-5-yl]-3-methylmorpholine]
58 | 1000 to 10000 | C[C@@H]1COCCN1c1ccc2c(n1)c(-c1cc[nH]n1)nn2CCc1ccncc1 [Compound 77, (3R)-3-Methyl-4-[3-(1H-pyrazol-3-yl)-1-[2-(pyridin-4-yl)ethyl]-1H-pyrazolo[4,3-b]pyridin-5-yl]morpholine]
3 | 100 to 1000 | C[C@@H]1COCCN1c1cc(C2=CCS(=O)(=O)CC2)c2c(n1)c(-c1ccn[nH]1)nn2C [Compound 81, 4-[1-Methyl-5-[(3R)-3-methylmorpholin-4-yl]-3-(1H-pyrazol-5-yl)-1H-pyrazolo[4,3-b]pyridin-7-yl]-3,6-dihydro-2H-1lambda6-thiopyran-1,1-dione]
21 | 1000 to 10000 | C[C@@H]1COCCN1c1ccc2c(n1)c(-c1cc[nH]n1)nn2CC(C)(C)O [Compound 85, 2-Methyl-1-{5-[(3R)-3-methylmorpholin-4-yl]-3-(1H-pyrazol-3-yl)-1H-pyrazolo[4,3-b]pyridin-1-yl}propan-2-ol]
24 | 1000 to 10000 | C[C@@H]1COCCN1c1ccc2c(n1)c(-c1cc[nH]n1)nn2C(C)(C)CO [Compound 86, 2-Methyl-2-{5-[(3R)-3-methylmorpholin-4-yl]-3-(1H-pyrazol-3-yl)-1H-pyrazolo[4,3-b]pyridin-1-yl}propan-1-ol]
0.4 | 10 to 100 | Cc1ncncc1-c1cc(N2CCOC[C@H]2C)nc2c(-c3cc[nH]n3)nn(C)c12 [Compound 87, (3R)-3-Methyl-4-[1-methyl-7-(4-methylpyrimidin-5-yl)-3-(1H-pyrazol-3-yl)-1H-pyrazolo[4,3-b]pyridin-5-yl]morpholine]
0.9 | 1000 to 10000 | CC(c1cc(N2CCOC[C@H]2C)nc2c(-c3cc[nH]n3)nn(C)c12)S(C)(=O)=O (stereo partly drawn) [Compound 89, (3R)-4-[7-(1-Methanesulfonylethyl)-1-methyl-3-(1H-pyrazol-3-yl)-1H-pyrazolo[4,3-b]pyridin-5-yl]-3-methylmorpholine]
